From paper PMC11547827, “Discovery of Cyclic Peptide Inhibitors Targeted on TNFα-TNFR1 from Computational Design and Bioactivity Verification” (Molecules, 2024)
Entries after “also recorded” stand apart in the source; their conditions may differ. Where a SMILES comes first, the peptide text is derived from it. Bridges are numbered along the chain shown (N, C = ends).

Key:
[1] = target: T1, hTNFR1 (Homo sapiens, UniProt P19438); test: ELISA binding affinity to hTNFR1
T1 sequence (P19438 30-455): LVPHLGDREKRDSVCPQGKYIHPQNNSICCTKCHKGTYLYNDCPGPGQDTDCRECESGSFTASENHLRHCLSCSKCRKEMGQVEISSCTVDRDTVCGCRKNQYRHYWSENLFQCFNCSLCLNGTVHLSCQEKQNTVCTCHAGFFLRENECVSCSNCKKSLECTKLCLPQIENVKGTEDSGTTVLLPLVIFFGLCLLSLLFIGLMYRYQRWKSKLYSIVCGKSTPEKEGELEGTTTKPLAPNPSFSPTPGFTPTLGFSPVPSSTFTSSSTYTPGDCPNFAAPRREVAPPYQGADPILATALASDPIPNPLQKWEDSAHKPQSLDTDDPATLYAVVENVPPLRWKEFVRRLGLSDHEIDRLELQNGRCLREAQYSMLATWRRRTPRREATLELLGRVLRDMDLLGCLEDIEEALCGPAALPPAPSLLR
Protocol: The hTNFR1 (100 ng) was coated on a 96-well ELISA plate (BIOFIL, Guangzhou, China) overnight at 4 °C, followed by blocking the plate with 200 μL of 3% skim milk solution in PBST (PBS, 0.05% Tween20) for 2 h at 37 °C. […] After incubating with the cyclic peptides for 2 h at room temperature, […] mAB (Solarbio, Beijing, China) was diluted at 1:500, and was incubated for an additional 2 h at room temperature. Five washes with PBST were carried out between each incubation to remove nonspecific absorbance. After the final wash, the samples were incubated in the dark with freshly prepared TMB Chromogen Solution (Sangon Biotech, Shanghai, China) for 10 min at room temperature to develop the signals. After adding the stop solution (1 M H2SO4), the plates were read at 450 nm on a plate reader. The raw data were processed to calculate the Kd value.

[2] = test system: TNFα trimer; settings: cited from earlier work
Source text: Several potential small molecules of TNFα inhibitors have already been reported. […] Furthermore, through structure-based virtual screening and biological assay, Xie’s group identified two novel antagonists, T1 and R1 (Figure S1A), which could bind to TNFα or TNFR1, with low-micromolar binding affinities to TNFα and TNFR1, respectively ...

[3] = target: TNFα; settings: cited from earlier work
Source text: Several potential small molecules of TNFα inhibitors have already been reported.

[4] = test system: L929 cells; settings: α_CC8, 200 μM, 24 h, CCK-8, 450 nm, n = 3
Protocol: L929 cells were seeded in a 96-well plate at a density of 8000 cells per well and cultured for 24 h under standard conditions. Then, the liquid in the wells was discarded, and 100 µL of medium containing different concentrations of cyclic peptides was added. After incubation for 24 h, the liquid in the well was discarded, and the medium was replaced with CCK-8 working solution (100 μL RPMI 1640 medium containing 5% CCK-8) and incubated in the dark for 2 h. The absorbance of each well at 450 nm was detected with a microplate reader. The same operation was performed with wells not seeded with cells as a blank group to eliminate systematic errors. Cell viability was calculated according to the following formula:(7) Cell viability(%)=(ODtest−ODblank)/(ODcontrol−ODblank)×100%

[5] = test system: TNFα-mediated cytotoxicity in L929 cells; test: Neutralization of TNFα induced necrosis in L929 cells
Protocol: L929 cells were seeded at a density of 8000 cells/well in a 96-well plate and incubated for 24 h in RPMI 1640 with 10% FBS at 37 °C. The experiment was divided into a blank group, a control group, a positive control group, and an experimental group. […] Serially diluted α_CC8 was added to cells and incubated at 37 °C, 5% CO2 for 2 h initially, and then 50 μL 10 ng/mL human TNFα was added and incubated overnight (17 h). 1 μg/mL Etanercept was used as a positive control. Subsequently, 100 μL 5% CCK-8 was added per well, followed by incubation of 2 h. The control group consisted of normal cultured cells without TNFα stimulation, while the blank control group contained empty wells without cells. At last, cell viability was confirmed by measuring the absorbance of each well at 450 nm. Cell viability was calculated according to Formula (7). Data was analyzed with SPSSAU (https://spssau.com/, Accessed on 14 August 2023) using the paired t-test to compare the differences between the experimental and control groups.

Q: For `CC[C@H](C)[C@@H]1NC(=O)[C@H](CCCNC(=N)N)NC(=O)[C@H](CO)NC(=O)[C@H]([C@@H](C)CC)NC(=O)[C@H]([C@@H](C)O)NC(=O)[C@@H](N)CSSC[C@@H](C(=O)O)NC(=O)[C@H](CO)NC(=O)[C@H](CC(C)C)NC(=O)[C@H](CCCNC(=N)N)NC(=O)[C@H](CC(N)=O)NC(=O)[C@H](C(C)C)NC(=O)[C@H](CCCCN)NC(=O)[C@H]([C@@H](C)O)NC(=O)[C@H](CCC(N)=O)NC(=O)[C@H](Cc2ccc(O)cc2)NC(=O)[C@H](CO)NC(=O)[C@H](C(C)C)NC(=O)[C@H](CCCCN)NC1=O` [L16R] (H-CTISRIKVSYQTKVNRLSC-OH; disulfide 1-19; N-terminus and C-terminus assumed), which “binding to hTNFR1 (in words)” value [1] is on record?
A: The value was “good binding condition with hTNFR1”.

Q: Which results are given for `Cc1cc2occ(CN(C)CCN(C)Cc3cn(-c4cccc(C(F)(F)F)c4)c4ccccc34)c(=O)c2cc1C` [SPD-304, reference compound]?
A: effect on TNFα trimer (in words) [2]: greatly increase the dissociation rate of the TNFα trimer; Kd ([3]; TNFα small molecule antagonist): 5.36 µM

Q: For `CC[C@H](C)[C@@H]1NC(=O)[C@H](CCCNC(=N)N)NC(=O)[C@H](CO)NC(=O)[C@H]([C@@H](C)CC)NC(=O)[C@H]([C@@H](C)O)NC(=O)[C@@H](N)CSSC[C@@H](C(=O)O)NC(=O)[C@H](CO)NC(=O)[C@H](CC(C)C)NC(=O)[C@H](CC(C)C)NC(=O)[C@H](CC(N)=O)NC(=O)[C@H](C(C)C)NC(=O)[C@H](CCCCN)NC(=O)[C@H]([C@@H](C)O)NC(=O)[C@H](CCC(N)=O)NC(=O)[C@H](Cc2ccc(O)cc2)NC(=O)[C@H](CO)NC(=O)[C@H](C(C)C)NC(=O)[C@H](C)NC1=O` [α_CC8] (H-CTISRIAVSYQTKVNLLSC-OH; disulfide 1-19; N-terminus and C-terminus assumed), which “survival rate of L929 cells” value [4] is on record?
A: The value was ≤ 90%.

Q: What about the “inhibition of TNFα-mediated cytotoxicity (in words)” value ([5]; L929 cells) of the same molecule?
A: The value was “effectively inhibit the TNFα-mediated cytotoxicity; also recorded: better bioactivity and lower effective concentration than R1_CC4; also recorded: improve cell viability significantly by inhibiting TNFα-mediated necrosis; also recorded: higher biological activity and effective concentration than R1_CC4”.

Q: And the “concentration at which survival rate increased significantly” value ([5]; L929 cells, human TNFα 10 ng/mL, 17 h, CCK-8, n = 3)?
A: Its value is 60 µM.

Q: What about the “increase of cell survival rate” value ([5]; α_CC8 60 μM, 2 h with cells, then human TNFα 17 h, n = 3) of the same molecule?
A: The value was 17.8%.

Q: With Etanercept as the molecule, how does the “TNFα binding (in words)” value ([3]; background statement, no reference given) read?
A: The value was “strong ability to bind TNFα”.

Q: What about the “blocking effect compared with the cyclic peptides (in words)” value ([5]; Etanercept 1 μg/mL, positive control, L929 cells) of the same molecule?
A: The value was “stronger blocking effect on the formation of TNFα/TNFR1”.

Q: With TNFα as the molecule, how does the “survival rate of L929 cells after TNFα” value ([5]; TNFα alone, 10 ng/mL, 17 h, average) read?
A: Its value is 42%.
